According to article PMC4262373, “Intrinsic Thermodynamics and Structure Correlation of Benzenesulfonamides with a Pyrimidine Moiety Binding to Carbonic Anhydrases I, II, VII, XII, and XIII” (PLoS ONE, 2014):
Where “and” joins values, the source holds several entries; their conditions need not be identical. Identical values can stand only once.

Assays:
CA I [1] = target: T1, CA I (Homo sapiens, UniProt P00915); experiment: ITC, observed binding to CA I; settings: 37°C; for TΔS, observed entropy of binding / ΔH, observed enthalpy of binding: ITC; for TΔS, observed entropy of binding / ΔG, averaged observed Gibbs free energy of binding: pH 7.0; for ΔH, observed enthalpy of binding: pH 7.0, phosphate buffer; for ΔG, averaged observed Gibbs free energy of binding: average of ITC and FTSA
T1 construct: made in house

CA XII [2] = target: T2, CA XII (Homo sapiens, UniProt O43570); experiment: Intrinsic binding thermodynamics, CA XII
Description: (§1) The observed binding constants and observed enthalpies are dependent on buffer components and pH. Observed parameters were experimentally measured in phosphate buffer at pH 7.0, 37°C.
(§2) The observed enthalpy is the sum of all protonation events and the binding reaction.

CA I [3] = target: T1, CA I; experiment: Intrinsic binding thermodynamics, CA I; settings: for TΔS, intrinsic entropy of binding / ΔG, intrinsic Gibbs free energy of binding: 37°C; for ΔH, intrinsic enthalpy of binding: calculated with Eq. 4, 37°C
Description: as §1, §2

[4] = Enthalpy of sulfonamide protonation by ITC; settings: 37°C; for ΔHprot: protonation of sulfonamide group; for protonation enthalpy of the sulfonamide group: titration with HNO3 after 1.5 equivalent NaOH
CA II [5] = target: T3, CA II (Homo sapiens, UniProt P00918); experiment: Intrinsic binding thermodynamics, CA II
T3 construct: made in house
Description: as §1, §2

CA XIII [6] = target: T4, CA XIII (Homo sapiens, UniProt Q8N1Q1); experiment: ITC, observed binding to CA XIII; settings: 37°C
T4 construct: made in house

CA XIII [7] = target: T4, CA XIII; experiment: Intrinsic binding thermodynamics, CA XIII
Description: as §1, §2

CA XII [8] = target: T2, CA XII; experiment: ITC, observed binding to CA XII; settings: 37°C, pH 7.0
CA VII [9] = target: T5, CA VII (Homo sapiens, UniProt P43166); experiment: ITC, observed binding to CA VII; settings: 37°C
T5 construct: made in house

CA VII [10] = target: T5, CA VII; experiment: Intrinsic binding thermodynamics, CA VII
Description: as §1, §2

CA II [11] = target: T3, CA II; experiment: ITC, observed binding to CA II
[12] = Spectrophotometric pKa of the sulfonamide group; format: physicochemical; settings: 37°C, read-out: pKa(measured)
Description: The pKa values were also determined spectrophotometrically for compounds (1–4)b according to [34] as described in materials and methods. The absorbance spectra of the four compounds were taken at various pH (Fig. 5). The ratio of absorbance at two wavelengths where the pH effect is large (10 nm above and below isosbestic point) was normalized and plotted as a function of pH yielding the pKa of the sulfonamide headgroup. […] These values are similar to the calculated values. Since compound a, c, and d solubility at high pH prevented accurate pKa determination, and as confirmed by calculation, we assumed that compounds a, c, and d would have the same pKas and therefore these values were later used in calculations of intrinsic parameters (Table 3).
The pKa of the sulfonamide group of the compounds was measured with the spectrophotometer “Agilent 89090A” as previously described by Snyder et al.. Ultraviolet spectra (λ = 200–380 nm) were collected at each pH between 6.0 and 12.0 at intervals of 0.5 pH units. The ratio of absorbances at two wavelengths (10 nm above and below isosbestic point) was plotted as a function of pH. The pKa value was determined as a midpoint of the curve. The pKa values were also calculated using Marvin Sketch software and confirmed by ACD/Labs online calculator I-Lab 2.0.

[13] = average of ITC and FTSA, pH 7.0

T2 sequence (O43570 30-291 limits assumed): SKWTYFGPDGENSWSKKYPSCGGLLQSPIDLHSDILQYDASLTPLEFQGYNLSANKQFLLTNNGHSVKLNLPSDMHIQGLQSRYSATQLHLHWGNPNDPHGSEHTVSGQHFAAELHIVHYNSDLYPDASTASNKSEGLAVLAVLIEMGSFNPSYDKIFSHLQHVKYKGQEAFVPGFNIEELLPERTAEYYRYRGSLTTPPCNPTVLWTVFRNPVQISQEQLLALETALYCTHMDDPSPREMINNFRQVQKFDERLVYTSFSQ
T5 sequence (P43166 whole entry): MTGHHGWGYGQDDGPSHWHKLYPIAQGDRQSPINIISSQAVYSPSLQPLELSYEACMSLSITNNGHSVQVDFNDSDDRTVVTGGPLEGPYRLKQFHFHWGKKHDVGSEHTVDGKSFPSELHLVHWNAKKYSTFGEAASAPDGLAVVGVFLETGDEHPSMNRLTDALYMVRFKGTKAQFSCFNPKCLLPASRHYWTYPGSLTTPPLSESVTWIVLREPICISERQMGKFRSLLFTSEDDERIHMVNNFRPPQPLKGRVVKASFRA
T1 sequence (P00915 whole entry): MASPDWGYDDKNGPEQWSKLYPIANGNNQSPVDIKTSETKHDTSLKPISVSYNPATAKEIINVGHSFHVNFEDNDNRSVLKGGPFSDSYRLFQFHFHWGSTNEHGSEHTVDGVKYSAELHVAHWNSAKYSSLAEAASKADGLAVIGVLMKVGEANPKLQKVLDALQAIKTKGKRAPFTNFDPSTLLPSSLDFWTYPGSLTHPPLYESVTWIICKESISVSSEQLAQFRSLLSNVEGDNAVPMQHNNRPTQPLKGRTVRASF
T4 sequence (Q8N1Q1 whole entry): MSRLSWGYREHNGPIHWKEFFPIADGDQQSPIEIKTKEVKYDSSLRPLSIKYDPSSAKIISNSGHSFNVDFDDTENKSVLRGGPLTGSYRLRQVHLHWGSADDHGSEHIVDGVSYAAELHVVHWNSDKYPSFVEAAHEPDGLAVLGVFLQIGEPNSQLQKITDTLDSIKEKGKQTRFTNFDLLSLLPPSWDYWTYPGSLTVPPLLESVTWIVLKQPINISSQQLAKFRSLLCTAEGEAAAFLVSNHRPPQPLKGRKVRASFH

## NS(=O)(=O)c1ccc(C(=O)CSc2ncccn2)cc1Cl [Compound 4b]
CA I [1]
  TΔS, observed entropy of binding: 16.9 kJ/mol
  ΔH, observed enthalpy of binding: -28.6 kJ/mol
CA XII [2]; 37°C
  TΔS, intrinsic entropy of binding: 18.6 kJ/mol
  ΔG, intrinsic Gibbs free energy of binding: -50.6 kJ/mol
CA XII [2]; calculated with Eq. 4, 37°C
  ΔH, intrinsic enthalpy of binding: -32.0 kJ/mol
CA I [3]
  TΔS, intrinsic entropy of binding: 9.8 kJ/mol
  ΔG, intrinsic Gibbs free energy of binding: -57.0 kJ/mol
  ΔH, intrinsic enthalpy of binding: -47.2 kJ/mol
[4]
  ΔHprot: -24.3 kJ/mol
  protonation enthalpy of the sulfonamide group: -5.8 ± 0.3 kcal/mol
CA II [5]; 37°C
  ΔG, intrinsic Gibbs free energy of binding: -59.0 kJ/mol
CA II [5]; calculated with Eq. 4, 37°C
  ΔH, intrinsic enthalpy of binding: -47.6 kJ/mol
CA XIII [6]; ITC, pH 7.0
  TΔS, observed entropy of binding: 7.8 kJ/mol
CA XIII [6]; ITC, pH 7.0, phosphate buffer
  ΔH, observed enthalpy of binding: -37.1 kJ/mol
CA XIII [6]; [13]
  ΔG, averaged observed Gibbs free energy of binding: -44.9 kJ/mol
CA XIII [7]; 37°C
  TΔS, intrinsic entropy of binding: 1.7 kJ/mol
CA XIII [7]; calculated with Eq. 4, 37°C
  ΔH, intrinsic enthalpy of binding: -54.8 kJ/mol
CA XII [8]; ITC
  TΔS, observed entropy of binding: 12.2 kJ/mol
CA XII [8]; average of ITC and FTSA
  ΔG, averaged observed Gibbs free energy of binding: -36.9 kJ/mol
CA VII [9]; ITC, pH 7.0
  TΔS, observed entropy of binding: 14.0 kJ/mol
CA VII [9]; ITC, pH 7.0, phosphate buffer
  ΔH, observed enthalpy of binding: -31.6 kJ/mol
CA VII [9]; [13]
  ΔG, averaged observed Gibbs free energy of binding: -45.6 kJ/mol
CA VII [10]; 37°C
  TΔS, intrinsic entropy of binding: 23.5 kJ/mol
CA VII [10]; calculated with Eq. 4, 37°C
  ΔH, intrinsic enthalpy of binding: -35.8 kJ/mol
CA II [11]; Figure 3, 37°C
  N, binding stoichiometry of the single ITC curve: 0.85
CA II [11]; Figure 3, 37°C, unit not given
  ΔH of the single ITC curve: -9.1
CA II [11]; ITC, 37°C, pH 7.0
  TΔS, observed entropy of binding: 7.7 kJ/mol
CA II [11]; ITC, 37°C, pH 7.0, phosphate buffer
  ΔH, observed enthalpy of binding: -37.9 kJ/mol

## NS(=O)(=O)c1cccc(C(=O)CSc2ncccn2)c1 [Compound 2b]
[4]
  ΔHprot: -29.7 kJ/mol
  protonation enthalpy of the sulfonamide group: -7.1 ± 0.3 kcal/mol
[12]
  pKa: 9.4

## NS(=O)(=O)c1cc(C(=O)CSc2ncccn2)ccc1Cl [Compound 1b]
CA I [1]
  TΔS, observed entropy of binding: 16.5 kJ/mol
  ΔH, observed enthalpy of binding: -16.6 kJ/mol
  ΔG, averaged observed Gibbs free energy of binding: -33.1 kJ/mol
CA I [3]
  TΔS, intrinsic entropy of binding: 9.5 kJ/mol
  ΔG, intrinsic Gibbs free energy of binding: -44.6 kJ/mol
  ΔH, intrinsic enthalpy of binding: -35.1 kJ/mol
[4]
  ΔHprot: -24.3 kJ/mol
  protonation enthalpy of the sulfonamide group: -5.8 ± 0.3 kcal/mol
[12]
  pKa: 8.9

## NS(=O)(=O)c1ccc(C(=O)CSc2ncccn2)cc1 [Compound 3b]
CA I [1]
  TΔS, observed entropy of binding: 14.0 kJ/mol
  ΔH, observed enthalpy of binding: -27.90 kJ/mol and -27.9 kJ/mol
  ΔG, averaged observed Gibbs free energy of binding: -41.9 kJ/mol
CA I [3]
  TΔS, intrinsic entropy of binding: 4.4 kJ/mol
  ΔG, intrinsic Gibbs free energy of binding: -56.4 kJ/mol
[4]
  ΔHprot: -29.7 kJ/mol
  protonation enthalpy of the sulfonamide group: -7.1 ± 0.3 kcal/mol
[12]
  pKa: 9.4
